# Assay results reported in patent publication US10054582B2, “Compositions and methods for inhibiting HMGB1 activation of melanocytes” (The Procter & Gamble Company, priority 2014, dated 2018).
# “Also recorded” adds a separate entry of the source.
# How the values were obtained:
# HMGB1 = HMGB1 quantitation from keratinocytes (ELISA, normalized to total protein); type: cell-based; conditions: for change in HMGB1 level relative to the control (in words): keratinocytes contacted with test agent at different concentrations; for HMGB1 (pg)/protein (ug): keratinocytes, vehicle control 54
# Method: Make a 210 mL suspension of keratinocytes at 40,000 cells/mL using suitable media to make a cell suspension. Place 2 mL of the cell suspension into the appropriate number of wells of one or more 12-well plates as needed, using the same velocity and insertion angle for each well as cells are pipetted. Incubate the 12-well plates overnight at 37° C. If the cell plating quality is poor (e.g., cells are not attached to plate or seeding density is uneven), discard and start over. Prepare a dosing media by diluting the test agent to the desired concentration (e.g., from 0.0001% to 10%) in a suitable media (e.g., the same media used to make the cell suspension). […] It is not uncommon for skin care actives to be included in skin care compositions at these levels. Optionally, include sufficient solublizer to provide 0.1% solublizer in the test sample. Add 2 mL of dosing media into each well of a 12-well plate and incubate at 4° C. overnight or until test agent is to be added to the test sample. Place prepared dosing media in the 37° C. incubator for at least 30 minutes, or until pH has equalized. When dosing media is warmed and at proper pH, dose the cells. Incubate the dosed cells at 37° C. for 6 hours. Keratinocytes (or other cells) are plated out in 12 well plates as described above with a seeding density of about 200,000 cells/well and incubated overnight at 37° C. with 5% CO2. The keratinocytes are dosed with a dosing medium containing the test agent and the plates returned to the incubator for another 20 hours. The supernatant for each is collected and the HMGB1 level analyzed using ELISA (USCN Life Sciences) in accordance with manufacturer's instructions. The cells are lysed with Glo Lysis Buffer (Promega) and the protein levels determined using a PIERCE brand bicinchoninic acid protein assay kit per manufacturer's instructions. The values of HMGB1 determined by ELISA and normalized to total protein levels from the cells.
# [1] = tested on: primary human melanocytes; experiment: Melanocyte dendricity and size measurements (Incucyte ZOOM live cell imaging); type: cell-based
# Description: The ability of a test agent to inhibit dendricity and cell body growth in melanocytes may be determined by contacting a sample of melanocytes with the test agent, measuring the change in dendricity and/or cell body growth and comparing the measured indicator to a control to determine if the test agent is identified as a skin tone agent. In some instances, it is important for the test sample to include a source of HMGB1. For example, an amount of HMGB1 (e.g., recombinant HIS-tagged HMGB1 available from Sigma) may be included in the test sample (e.g., at a final level of 0.1 μg/mL), or the test sample may include another type of cell, which can be stimulated to produce HMGB1. A control may be obtained by measuring the dendricity and/or cell body size of the melanocytes prior to contact with the test agent, measuring the dendricity and/or cell body size of the melanocytes in a control sample and/or from the dendricity and/or cell body size of melanocytes published in scientific literature, if available.
# Primary human melanocytes (ATCC) are cultured for 2 passages in T150 flasks. For dendricity experiments, melanocytes are plated into 96 well plates (clear) at a density of about 5000 cells/well. The plates are placed into an Incucyte ZOOM® live cell imaging system (Essen Bioscience, Ann Arbor, Mich.) which resides inside a 37° C., 5% CO2 incubator. 20× images are collected every hour using the phase mode. The Neurite Outgrowth Software Package (Essen) is used to measure cell body size, dendrite length, and cell numbers.
# [2] = melanocytes contacted with HMGB1 vs control / before treatment, span of three days
Molecule,change in HMGB1 level relative to the control (in words) (HMGB1),HMGB1 (pg)/protein (ug) (HMGB1; test agent at 0.001%) [pg/µg],HMGB1 (pg)/protein (ug) (HMGB1; test agent at 0.005%) [pg/µg],HMGB1 (pg)/protein (ug) (HMGB1; test agent at 0.02%) [pg/µg],"cell body size of melanocytes [1, 2]","dendricity (dendrite length) of melanocytes [1, 2]",melanocyte proliferation ([1]; primary human melanocytes contacted with HMGB1)
hydroxycinnamic acid [HCA],significantly reduced HMGB1 levels relative to the control,29,6,2,–,–,–
methyl hydroxycinnamic acid [ME-HCA],significantly reduced HMGB1 levels relative to the control,33,28,4,–,–,–
"HMGB1: high-mobility group protein B1, SEQ ID NO: 1; recombinant HIS-tagged HMGB1 available from Sigma (protein, listed as Homo sapiens, His tag, recombinant HIS-tagged HMGB1 available from Sigma) MGKGDPKKPRGKMSSYAFFVQTCREEHKKKHPDASVNFSEFSKKCSERWKTMSAKEKGKFEDMAKADKARYEREMKTYIPPKGETKKKFKDPNAPKRPPSAFFLFCSEYRPKIKGEHPGLSIGDVAKKLGEMWNNTAADDKQPYEKKAAKLKEKYEKDIAAYRAKGKPDAAKKGVVKAEKSKKKKEEEEDEEDEEDEEEEEDEEDEDEEEDDDDE",–,–,–,–,significantly larger cell body size relative to the control; also recorded: increased dendricity and cell body size,significantly longer dendrites relative to the control; also recorded: increased dendricity,without enhancing melanocyte proliferation
